# Values joined by “and” are separate entries in the source; they are usually repeats but may differ in a detail not shown here. Identical values can stand only once.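 Five concentrations, 48 hours, 96-well plates. GI50: concentration for 50% inhibition of growth. TGI: concentration producing complete growth inhibition.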
# Key:
# Experiment in all cases: growth of human tumour cells (NCI), 48 h
# [1] = system: 786-0 renal
# [2] = system: T-47D breast
# [3] = system: MDA-MB-435
# [4] = system: NCI-H522 lung
# [5] = system: SNB-75 CNS
# [6] = system: PC-3 prostate
# [7] = system: HT29 colon
# [8] = system: UACC-62 melanoma
SMILES,GI50 [1],TGI [1] [µM],GI50 [2] [µM],TGI [2] [µM],GI50 [3],TGI [3],GI50 [4],TGI [4],GI50 [5] [µM],TGI [5] [µM],GI50 [6] [µM],TGI [6],GI50 [7] [µM],TGI [7],GI50 [8] [µM],TGI [8] [µM]
CCCCCCCC/C=C/CCCCCCCC1=NC(C)(C)CN1C(C)(C)CO,1.64 µM,3.12,3.39,11.8,1.72 µM,3.26 µM,1.83 µM,3.7 µM,1.89,5.77,1.83,4.92 µM,1.45,3.38 µM,1.82,3.47
CN1CCN(C2=NC(=O)/C(=C\c3ccc(N(C)C)cc3)S2)CC1,> 100 µM,> 100,36.7,> 100,> 100 µM,> 100 µM,> 100 µM,> 100 µM,48.2,> 100,> 100,> 100 µM,39.5,> 100 µM,91.7,> 100
OCc1ccc(N(Cc2ccc(F)cc2)Cc2ccc(F)cc2)cc1Cl,11.6 µM,25.5,3.31,15.4,10.2 µM,22.4 µM,9.39 µM,25.9 µM,7.74,22,9.08,22.8 µM,9.66,23.3 µM,2.61,13.7
COC1=CC(=O)O/C1=C(\OC)C1OC1c1ccccc1 (stereo not drawn),,> 100,,> 100,,> 100 µM,,> 100 µM,,,,> 100 µM,,> 100 µM,,> 100
O=C1NC(=NCCc2ccc(Cl)cc2)S/C1=C\c1ccc2ncccc2c1,14.3 µM,> 25,18.1,> 25,10 µM,> 25 µM,3.41 µM,> 16 µM,6.77,> 21.6,> 25,> 25 µM,> 13,> 25 µM,17.4,> 25
COc1cc(/C=N/NC(=O)c2cnn3c2NC(c2ccccc2)C3)ccc1OC1CCCC1 (stereo not drawn),0.639 µM,3.73,0.704,10.4,0.258 µM,1.28 µM,0.475 µM,6.54 µM,0.207,0.778,0.503,3.44 µM,0.467,8.55 µM,0.573,3.67
CCOc1c(Br)cc(Br)cc1C=C(C#N)C#N,,> 10,,> 10,,> 10 µM,,,,> 10,,> 10 µM,,> 10 µM,,> 10
CC(C)Cc1cnc(CC(C)C)c(=O)[nH]1,,> 100,,> 100,,> 100 µM,,,,> 100,,> 100 µM,,> 100 µM,,> 100
COc1ccc2[nH]c(C(=O)N3CCN(C(=O)OCc4ccc5c(Cl)cc(Cl)c(O)c5n4)CC3)cc2c1,1.37 µM,2.82,,,1.2 µM,2.72 µM,0.828 µM,2.35 µM,1.08,2.4,1.06,2.67 µM,1.08,2.48 µM,1.28,2.59
OCC(O)C(O)C(O)C(/C=N\Nc1ncnc2c(Br)cc(Br)cc12)=N/Nc1ncnc2c(Br)cc(Br)cc12 (stereo not drawn),2.73 µM and 5.76 µM,,,,5.24 µM and 12.6 µM,21.7 µM and > 100 µM,10.1 µM and 3.6 µM,24.9 µM and > 100 µM,,,,13 µM and > 100 µM,,42 µM and > 100 µM,,
O=C1c2cccc3cccc(c23)C(=O)N1CCCCCN1CCN(CCN=c2cc3n(-c4ccc(Cl)cc4)c4ccccc4nc-3cc2Nc2ccc(Cl)cc2)CC1,9.6 µM,30.7,32.8,> 50,9.21 µM,21.4 µM,,,14.5,39.6,6.36,28.4 µM,9.13,> 50 µM,7.5,20.5
CCCCCCCC(=O)OCC/C=C/C1OC1C1OC(=O)/C=C\C=C\C(=O)N(C(C)=O)C(=O)/C=C(/C)CCC2OC2C1OC(=O)NC(C)=O (stereo not drawn),4.12 µM,11.1,,,5.85 µM,24.8 µM,3.78 µM,8.16 µM,4.79,17.9,3.15,8.04 µM,4.03,14.4 µM,6.27,> 25
O=C(Nc1sc2c(c1C(=O)O)CCCC2)c1ccco1,> 50 µM,> 50,> 50,> 50,> 50 µM,> 50 µM,> 50 µM,> 50 µM,> 50,> 50,45.9,> 50 µM,,,> 50,> 50
O=C(Nc1ccc(Cl)cc1C(F)(F)F)C(=O)Nn1c(=S)[nH]c2ccccc2c1=O,,> 100,,> 100,,> 100 µM,,,,> 100,,> 100 µM,,> 100 µM,,> 100
CCC[CH2][Sn-]([CH2]CCC)([CH2]CCC)[O]C(=O)C(C)C,0.109 µM,0.228,,,0.153 µM,0.289 µM,,,,,0.107,0.25 µM,0.0573,0.208 µM,0.2,0.424
O=C1c2ccccc2-c2nc3ccncc3n21,,> 100,,,,,,> 100 µM,,> 100,,> 100 µM,,> 100 µM,,> 100
Cc1cccc(N2C(=O)/C(=C/C(Cl)=C/c3ccc([N+](=O)[O-])cc3)SC2=S)c1C,2.07 µM,4.68,2.7,> 100,,,2.18 µM,5.58 µM,,,1.39,4.93 µM,1.13,> 100 µM,1.7,3.86
COc1ccc(-c2ccc(C3CC(c4ccccc4)=NN3)o2)c([N+](=O)[O-])c1 (stereo not drawn),60.6 µM,> 100,> 100,> 100,32.4 µM,> 100 µM,58.4 µM,> 100 µM,,,37.3,> 100 µM,51.3,> 100 µM,67.7,> 100
